This passage reports IC50 and GI50 results from patent US11370779B2, “Pharmaceutical composition for preventing or treating acute myeloid leukemia or metastatic breast cancer” (PELEMED CO., LTD., priority 2017, dated 2022).

Assay [1] concerns MV4;11 cells. The assay is described as follows: Cell viability, EZ-Cytox tetrazolium assay, MV4;11. The class given is cell-based, human. The settings on record: Homo sapiens, MV4-11, 72 hours; for IC50: Table 1; for GI50: read-out: GI50(nM) MV4;11. How it is done:
The cultured cells were incubated at 3° C. with 5% CO2.
(§1) Cell viability was assessed by a tetrazolium-based assay using the EZ-Cytox Cell Viability Assay kit (DaeilLab, Korea). Briefly, 2,000 to 15,000 cells were plated in 96-well plates in 100 μl of medium. The next day, the cells were treated with compounds together with dimethyl sulfoxide (DMSO) as a negative control. Three days (72 hours) after the drug addition, 15 μl of the EZ-Cytox kit reagent was added to each well of the 96-well plate and then incubated at 37° C. in a humidified CO2 incubator for 4 hours. After incubation, the optical density (OD) was measured at a wavelength of 450 nm using a Victor multilabel reader (Perkin Elmer, Waltham, Mass., USA).

Assay [2] has as its system MDA-MB-231. The assay is described as follows: Cell viability, EZ-Cytox tetrazolium assay, MDA-MB-231. Type of assay: cell-based, human. The following applies: Homo sapiens, MDA-MB-231; 72 hours. As to the method: MDA-MB-231 (metastatic breast cancer, ATCC HTB-26), Jurkat (human acute T lymphocytic leukemia, ATCC TIB-152), and K-562 (human chronic myelogenous leukemia, ATCC CCL-243) cells were cultured in RPMI-1640 (Sigma Co.). MCF7 (human breast adenocarcinoma, ATCC HTB-22) and PC-3 (human prostate adenocarcinoma, ATCC CRL-1435) cells were cultured in DMEM (Sigma Co.) medium supplemented with 10% fetal bovine serum and 1% penicillin/streptomycin. The cultured cells were incubated at 3° C. with 5% CO2.
as §1, with “USA). The IC50 was calculated by nonlinear regression using Prism version 5.01 (GraphPad, La Jolla, Calif., USA).” for “USA).”

Counter-ions that a name gives are not always drawn.

Turning to `COC(=O)c1ccc2c(c1)/C(=C1/Nc3ccccc3/C1=N\OCCN1CCN(C)CC1)C(=O)N2` [Compound 5, Methyl (2Z,3E)-3-((2-(4-methylpiperazin-1-yl)ethoxy)imino)-2′-oxo-[2,3′-biindolinylidene]-5′-carboxylate dihydrochloride], in assay [1], 11 nM corresponded to half-maximal inhibition (IC50).

On to `COC(=O)c1ccc2c(c1)/C(=C1/Nc3ccccc3/C1=N\OCCN1CCOCC1)C(=O)N2` [Compound 6, Methyl (2Z,3E)-3-((2-morpholinoethoxy)imino)-2′-oxo-[2,3′-biindolinylidene]-5′-carboxylate hydrochloride], for which the 50% inhibitory concentration (IC50) in assay [1] came out at 53 nM.

Turning to `CN1CCN(CCO/N=C2/C(=C3/C(=O)Nc4ccc([N+](=O)[O-])cc43)Nc3ccc(O)cc32)CC1` [Compound 14, (2Z,3E)-5-hydroxy-3-((2-(4-methylpiperazin-1-yl)ethoxy)imino)-5′-nitro-[2,3′-biindolinylidene]-2′-one dihydrochloride], the GI50 in assay [1] came to 50 nM; in assay [2], 29.1 nM.

In assay [2], `NCCO/N=C1/C(=C2/C(=O)Nc3ccc([N+](=O)[O-])cc32)Nc2ccccc21` [Compound 15, (2Z,3E)-3-((2-aminoethoxy)imino)-5′-nitro-[2,3′-biindolinylidene]-2′-one hydrochloride] yielded a GI50 greater than 1 nM.

`O=C1Nc2ccc([N+](=O)[O-])cc2/C1=C1/Nc2ccccc2/C1=N\OCCN1CCNCC1` [Compound 16, (2Z,3E)-5′-nitro-3-((2-(piperazin-1-yl)ethoxy)imino)-[2,3′-biindolinylidene]-2′-one dihydrochloride]: the 50% growth inhibitory concentration (GI50) turned out to be 7.01 nM in assay [1] and 74.3 nM in assay [2].

With `O=C1Nc2ccc([N+](=O)[O-])cc2/C1=C1/Nc2ccc(F)cc2/C1=N\OCCN1CCNCC1` [Compound 17, (2Z,3E)-5-fluoro-5′-nitro-3-((2-(piperazin-1-yl)ethoxy)imino)-[2,3′-biindolinylidene]-2′-one dihydrochloride], the GI50 in assay [1] came out at 10.2 nM; in assay [2], 88.8 nM.

For `CN1CCN(CCO/N=C2/C(=C3/C(=O)Nc4ccc([N+](=O)[O-])cc43)Nc3ccc(F)cc32)CC1` [Compound 18, (2Z,3E)-5-fluoro-3-((2-(4-methylpiperazin-1-yl)ethoxy)imino)-5′-nitro-[2,3′-biindolinylidene]-2′-one dihydrochloride], the GI50 in assay [1] stood at 118 nM; in assay [2], 69.7 nM.

Turning to `O=C1Nc2ccc([N+](=O)[O-])cc2/C1=C1/Nc2ccc(F)cc2/C1=N\OCCN1CCCCC1` [Compound 19, (2Z,3E)-5-fluoro-5′-nitro-3-((2-(piperidin-1-yl)ethoxy)imino)-[2,3′-biindolinylidene]-2′-one hydrochloride], the concentration for 50% growth inhibition (GI50) in assay [1] was 1.49 nM; in assay [2], 804 nM.

As for `O=C1Nc2ccc([N+](=O)[O-])cc2/C1=C1/Nc2ccc(F)cc2/C1=N\OCCN1CCCC1` [Compound 20, (2Z,3E)-5-fluoro-5′-nitro-3-((2-(pyrrolidin-1-yl)ethoxy)imino)-[2,3′-biindolinylidene]-2′-one hydrochloride], the results for the GI50 in assay [1] and in assay [2] were 447 nM and 144 nM, respectively.

Consider `CN1CCN(CCO/N=C2/C(=C3/C(=O)Nc4ccc(F)cc43)Nc3ccc(F)cc32)CC1` [Compound 22, (2Z,3E)-5,5′-difluoro-3-((2-(4-methylpiperazin-1-yl)ethoxy)imino)-[2,3′-biindolinylidene]-2′-one dihydrochloride], for which it took 600 nM to inhibit growth in assay [2] by half (GI50).

Take `O=C1Nc2ccc(F)cc2/C1=C1/Nc2ccc(F)cc2/C1=N\OCCN1CCCCC1` [Compound 23, (2Z,3E)-5,5′-difluoro-3-((2-(piperidin-1-yl)ethoxy)imino)-[2,3′-biindolinylidene]-2′-one hydrochloride]: the concentration for 50% growth inhibition (GI50) in assay [1] was 3.19 nM; in assay [2], greater than 1 nM.

Consider `O=C1Nc2ccc(F)cc2/C1=C1/Nc2ccc(F)cc2/C1=N\OCCN1CCCC1` [Compound 24, (2Z,3E)-5,5′-difluoro-3-((2-(pyrrolidin-1-yl)ethoxy)imino)-[2,3′-biindolinylidene]-2′-one hydrochloride], for which the concentration for 50% growth inhibition (GI50) turned out to be 634 nM in assay [1] and 347 nM in assay [2].

Take `NC1CCN(CCO/N=C2/C(=C3/C(=O)Nc4ccc(F)cc43)Nc3ccc(F)cc32)CC1` [Compound 25, (2Z,3E)-3-((2-(4-aminopiperidin-1-yl)ethoxy)imino)-5,5′-difluoro-[2,3′-biindolinylidene]-2′-one dihydrochloride]: the results for the 50% growth inhibitory concentration (GI50) in assay [1] and in assay [2] were 85.7 nM and greater than 1 nM, respectively.

With `CN1CCN(CCO/N=C2/C(=C3/C(=O)Nc4ccccc43)Nc3ccccc32)CC1` [Compound 29, (2Z,3E)-3-((2-(4-methylpiperazin-1-yl)ethoxy)imino)-[2,3′-biindolinylidene]-2′-one dihydrochloride], the values for the GI50 in assay [1] and in assay [2] were 54.8 nM and 483 nM, respectively.

With `O=C1Nc2ccccc2/C1=C1/Nc2ccccc2/C1=N\OCCN1CCCCC1` [Compound 30, (2Z,3E)-3-((2-(piperidin-1-yl)ethoxy)imino)-[2,3′-biindolinylidene]-2′-one hydrochloride], the results for the GI50 in assay [1] and in assay [2] were 138 nM and greater than 1 nM, respectively.

For `O=C1Nc2ccccc2/C1=C1/Nc2ccccc2/C1=N\OCCN1CCCC1` [Compound 31, (2Z,3E)-3-((2-(pyrrolidin-1-yl)ethoxy)imino)-[2,3′-biindolinylidene]-2′-one hydrochloride], the GI50 in assay [1] was determined as 104 nM; in assay [2], 313 nM.

Regarding `O=C1Nc2ccc(F)cc2/C1=C1/Nc2ccccc2/C1=N\OCCN1CCCCC1` [Compound 35, (2Z,3E)-5′-fluoro-3-((2-(piperidin-1-yl)ethoxy)imino)-[2,3′-biindolinylidene]-2′-one hydrochloride], the values for the 50% growth inhibitory concentration (GI50) in assay [1] and in assay [2] were 263 nM and 805 nM, respectively.

`O=C1Nc2ccc(Cl)cc2/C1=C1/Nc2ccccc2/C1=N\OCCN1CCNCC1` [Compound 38, (2Z,3E)-5′-chloro-3-((2-(piperazin-1-yl)ethoxy)imino)-[2,3′-biindolinylidene]-2′-one dihydrochloride]: the GI50 in assay [1] was 11 nM.

For the molecule `CN1CCN(CCO/N=C2/C(=C3/C(=O)Nc4ccc(Cl)cc43)Nc3ccccc32)CC1` [Compound 39, (2Z,3E)-5′-chloro-3-((2-(4-methylpiperazin-1-yl)ethoxy)imino)-[2,3′-biindolinylidene]-2′-one dihydrochloride], the concentration for 50% growth inhibition (GI50) in assay [1] turned out to be 37 nM.

Consider `O=C1Nc2ccc(Br)cc2/C1=C1/Nc2ccccc2/C1=N\OCCN1CCNCC1` [Compound 40, (2Z,3E)-5′-bromo-3-((2-(piperazin-1-yl)ethoxy)imino)-[2,3′-biindolinylidene]-2′-one dihydrochloride], for which the concentration for 50% growth inhibition (GI50) in assay [1] worked out at 10 nM.

For the molecule `O=C1Nc2ccc(I)cc2/C1=C1/Nc2ccccc2/C1=N\OCCN1CCNCC1` [Compound 42, (2Z,3E)-5′-iodo-3-((2-(piperazin-1-yl)ethoxy)imino)-[2,3′-biindolinylidene]-2′-one dihydrochloride], the concentration for 50% growth inhibition (GI50) in assay [1] stood at 9 nM.

As for `CN1CCN(CCO/N=C2/C(=C3/C(=O)Nc4ccc(I)cc43)Nc3ccccc32)CC1` [Compound 43, (2Z,3E)-5′-iodo-3-((2-(4-methylpiperazin-1-yl)ethoxy)imino)-[2,3′-biindolinylidene]-2′-one dihydrochloride], in assay [1], the 50% growth inhibitory concentration (GI50) was 32 nM.

Regarding `COc1ccc2c(c1)/C(=C1/Nc3ccccc3/C1=N\OCCN1CCNCC1)C(=O)N2` [Compound 46, (2Z,3E)-5′-methoxy-3-((2-(piperazin-1-yl)ethoxy)imino)-[2,3′-biindolinylidene]-2′-one dihydrochloride], the concentration for 50% growth inhibition (GI50) in assay [1] is 17 nM.

Regarding `COc1ccc2c(c1)/C(=C1/Nc3ccccc3/C1=N\OCCN1CCN(C)CC1)C(=O)N2` [Compound 47, (2Z,3E)-5′-methoxy-3-((2-(4-methylpiperazin-1-yl)ethoxy)imino)-[2,3′-biindolinylidene]-2′-one dihydrochloride], the GI50 in assay [1] was 7 nM.
